Data published in patent US11446287B2, “Compounds and methods for EP300 or CBP modulation and indications therefor” (Opna Immuno-Oncology SA, priority 2019, dated 2022).

Biological target: T1, Recombinant human BRD4 containing dual bromodomains (BRD4-BD12 (1-477)) (Homo sapiens, UniProt O60885)
T1 construct: Recombinant human BRD4 containing dual bromodomains (BRD4-BD12 (1-477)); made in house; host or cells: E. coli BL21-CodonPlus (DE3), modified pET vector
Test: BRD4 Alphascreen binding assay
Procedure, shortened: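 AlphaScreen proximity between Ni-chelate-bound BRD4-BD12 (1-477) and streptavidin-captured H4 K5/K8/K12/K16-acetyl peptide measured after 1 h room-temperature compound incubation and 30 min with 7.5 μg/ml beads. Buffer: 50 mM HEPES pH 7.5, 50 mM NaCl, 0.01% BSA, 0.01% Triton X-100; data plate-normalized and four-parameter fit for IC50.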

Which IC50 does the source give for `Cc1noc(C)c1-c1cnc2c(c1)c(-c1ccc(C(=O)O)cc1OC(F)(F)F)cn2-c1cccnc1` [P-0175, 4-(5-(3,5-dimethylisoxazol-4-yl)-1-(pyridin-3-yl)-1H-pyrrolo[2,3-b]pyridin-3-yl)-3-(trifluoromethoxy)benzoic acid] here?
Its IC50 is 1 to 8 µM.

Which IC50 does the source give for `Cc1noc(C)c1-c1cnc2c(c1)c(-c1ccc(C(=O)O)cc1OC(F)(F)F)cn2C1CCOCC1` [P-0226, 4-(5-(3,5-dimethylisoxazol-4-yl)-1-(tetrahydro-2H-pyran-4-yl)-1H-pyrrolo[2,3-b]pyridin-3-yl)-3-(trifluoromethoxy)benzoic acid] here?
The IC50 was 1 to 8 µM.

For `Cc1noc(C)c1-c1cnc2c(c1)c(-c1c(Cl)cc(C(=O)O)cc1Cl)cn2[C@@H](C)c1ccccn1` [P-0197, (S)-3,5-dichloro-4-(5-(3,5-dimethylisoxazol-4-yl)-1-(1-(pyridin-2-yl)ethyl)-1H-pyrrolo[2,3-b]pyridin-3-yl)benzoic acid], which IC50 is on record?
Its IC50 is 8 to 1000 µM.

`CCOc1cccc(Cl)c1-n1cc(-c2ccccc2)c2ncc(-c3c(C)noc3C)cc21` [P-0224, 4-(1-(2-chloro-6-ethoxyphenyl)-3-phenyl-1H-pyrrolo[3,2-b]pyridin-6-yl)-3,5-dimethylisoxazole] was tested. Which IC50 did it give?
Its IC50 is 1 to 8 µM.

Which IC50 does the source give for `Cc1noc(C)c1-c1cnc2c(c1)c(-c1ccc(C(=O)O)cc1OC(F)(F)F)cn2-c1cnccc1C#N` [P-0204, 4-(1-(4-cyanopyridin-3-yl)-5-(3,5-dimethylisoxazol-4-yl)-1H-pyrrolo[2,3-b]pyridin-3-yl)-3-(trifluoromethoxy)benzoic acid] here?
The IC50 was 8 to 1000 µM.

`Cc1noc(C)c1-c1cnc2c(c1)c(-c1ccc(C(=O)O)cc1OCC(F)(F)F)cn2C(C1CC1)C1CC1` [P-0214, 4-(1-(dicyclopropylmethyl)-5-(3,5-dimethylisoxazol-4-yl)-1H-pyrrolo[2,3-b]pyridin-3-yl)-3-(2,2,2-trifluoroethoxy)benzoic acid] was tested. Which IC50 did it give?
Its IC50 is 8 to 1000 µM.

Which IC50 does the source give for `CCOc1cccc(C#N)c1-n1cc(-c2ccccc2)c2ncc(-c3c(C)noc3C)cc21` [P-0206, 2-(6-(3,5-dimethylisoxazol-4-yl)-3-phenyl-1H-pyrrolo[3,2-b]pyridin-1-yl)-3-ethoxybenzonitrile] here?
The IC50 was 8 to 1000 µM.

How did the IC50 turn out when `COC(=O)c1cc(OC)c(-n2cc(-c3ccccc3)c3ncc(-c4c(C)noc4C)cc32)c(OC)c1` [P-0219, methyl 4-(6-(3,5-dimethylisoxazol-4-yl)-3-phenyl-1H-pyrrolo[3,2-b]pyridin-1-yl)-3,5-dimethoxybenzoate] was run?
Its IC50 is 1 to 8 µM.
